According to paper PMC10817170, “Effect of an NHE3 inhibitor in combination with an NPT2b inhibitor on gastrointestinal phosphate absorption in Rodent models” (PLOS ONE, 2024):
Where “and” joins values, the source holds several entries; their conditions need not be identical. Equal entries are not always repeated.

Target: T1, Human NHE3 (Homo sapiens, UniProt P48764)
T1 construct: myc
T1 sequence (P48764 26-834): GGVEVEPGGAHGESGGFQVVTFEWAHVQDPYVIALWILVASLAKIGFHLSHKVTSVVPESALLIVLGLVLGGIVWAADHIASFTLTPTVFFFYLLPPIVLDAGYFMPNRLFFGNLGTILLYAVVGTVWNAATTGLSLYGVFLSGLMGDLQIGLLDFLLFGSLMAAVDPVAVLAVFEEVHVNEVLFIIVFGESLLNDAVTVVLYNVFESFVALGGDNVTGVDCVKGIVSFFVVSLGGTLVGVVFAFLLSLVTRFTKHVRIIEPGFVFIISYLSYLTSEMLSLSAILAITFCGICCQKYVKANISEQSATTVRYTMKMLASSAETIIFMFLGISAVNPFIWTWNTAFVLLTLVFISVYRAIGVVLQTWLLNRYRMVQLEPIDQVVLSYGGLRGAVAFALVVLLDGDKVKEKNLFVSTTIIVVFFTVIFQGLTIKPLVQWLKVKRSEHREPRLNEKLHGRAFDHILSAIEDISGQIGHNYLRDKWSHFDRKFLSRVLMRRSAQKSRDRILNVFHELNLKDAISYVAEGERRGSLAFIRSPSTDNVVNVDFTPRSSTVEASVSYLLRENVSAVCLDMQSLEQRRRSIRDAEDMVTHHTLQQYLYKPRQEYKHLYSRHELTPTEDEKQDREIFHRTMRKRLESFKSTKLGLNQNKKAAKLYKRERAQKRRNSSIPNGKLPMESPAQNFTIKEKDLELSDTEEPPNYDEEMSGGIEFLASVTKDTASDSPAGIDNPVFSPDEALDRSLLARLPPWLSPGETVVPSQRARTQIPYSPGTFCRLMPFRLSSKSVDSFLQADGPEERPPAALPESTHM
Assay: NHE3 activity assay (intracellular pH recovery, BCECF-AM) in human NHE3 over-expressing NHD C8 cells
Type: cell-based
From the text: Sodium hydrogen exchanger activity specific to NHE3 was achieved by overexpressing human NHE3 in an endogenously NHE-deficient cell line generated by chemical-induced mutagenesis. After the mutagenesis, NHE-deficient cells were selected by loading lithium into the cells and then exposing them to an acidic extracellular environment. Under these conditions, NHE exchanges intracellular lithium for extracellular protons, thus only NHE-deficient cells can avoid a toxic intracellular acidosis and survive. Dede cells (ATCC ccl-39), grown to 50% confluence in McCoy’s 5A medium (GE Healthcare) with 10% FBS and antibiotic/antimycotic solution (GE Healthcare) in a T75 flask, were treated with 500 μg/mL of EMS (ethyl methanesulfonate, Sigma-Aldrich) in medium for 20 hours for mutagenesis and washed twice with phosphate buffered saline (PBS). The cells were then trypsinized, plated in two T175 flasks and cultured in fresh medium without EMS for 2 days. […] The intracellular pH change is then measured by an intracellular pH-sensitive dye, 2’,7’-Bis-(2-carboxyethyl)-5(and-6)-carboxyfluorescein, acetoxymethyl ester (BCECF-AM, ThermoFisher Scientific) upon reintroduction of sodium. […] The plate was immediately read for fluorescence at the excitation wavelength of 505 nm and the emission wavelength of 550 nm using a kinetic method by Molecular Device, SpectraMax i3. […]

slope of the concentration-response curve (4-parameter fit, representative curve): 0.8 | IC50 (geometric mean of individual IC50, n=7): 5.8 nM and 5.76 nM
SMILES: CN1Cc2c(Cl)cc(Cl)cc2[C@H](c2cccc(S(=O)(=O)NCCOCCOCCN/C(=N\C(N)=O)NCCCCN/C(=N/C(N)=O)NCCOCCOCCNS(=O)(=O)c3cccc([C@@H]4CN(C)Cc5c(Cl)cc(Cl)cc54)c3)c2)C1.Cl.Cl [LY3304000, (Z)-[[4-[[(Z)-N’-carbamoyl-N-[2-[2-[2-[[3-[(4S)-6,8-dichloro-2-methyl-3,4-dihydro-1H-isoquinolin-4-yl]phenyl]sulfonylamino]ethoxy]ethoxy]ethyl]carbamimidoyl]amino]butylamino]-[2-[2-[2-[[3-[(4S)-6,8-dichloro-2-methyl-3,4-dihydro-1H-isoquinolin-4-yl]phenyl]sulfonylamino]ethoxy]ethoxy]ethylamino]methylene]urea dihydrochloride]
